The term IC50 denotes the midpoint of a concentration-inhibition curve. Lower therefore signals higher potency.

A short description of the test: Cytotoxicity against mouse L1210/0 cells after 48 hrs. It counts as cell-based. Conditions: Mus musculus, L1210/0, 48 h.

For the compound `OC[C@@H]1CCC[C@H]1n1cnc2c(O)ncnc21`, the IC50 was above 200 µM.

For the compound `Nc1nc(Cl)c2ncn(COCCO)c2n1`, the IC50 is above 200 µM.

For `CC1(C)[C@@H](Cn2nnc3c(Cl)nc(N)nc32)CC[C@@]1(C)CO`, half-maximal inhibition (IC50) was put at 44.6 µM.

As for `O=c1[nH]cc(F)c(=O)[nH]1` [FLUOROURACIL], 0.31 µM corresponded to half-maximal inhibition (IC50).

As for `C=CC#Cc1cn([C@H]2C[C@H](O)[C@@H](CO)O2)c(=O)[nH]c1=O`, the IC50 is above 200 µM.

With `O=c1[nH]c(=O)n(C[C@H]2CCC[C@H]2CO)cc1I`, the IC50 was above 200 µM.

Compound `Nc1nc(NC2CC2)c2ncn(CCOCP(=O)(O)O)c2n1` displayed an IC50 of 10.2 µM.

In turn, `O=c1[nH]c(=O)n(CC2CCC(CO)C2)cc1I` (stereo unspecified) displayed an IC50 above 200 µM.

`O=c1[nH]cnc2c1nnn2[C@@H]1C[C@H](CO)[C@@H](CO)[C@H]1CO` gave an IC50 above 200 µM.

Compound `CC1(C)[C@@H](CO)CC[C@@]1(C)Cn1cnc2c(N)ncnc21` showed an IC50 above 200 µM.

As for `O=C1NCN([C@@H]2O[C@H](COP3OCCC(F)(F)O3)[C@@H](O)C2=O)C=C1F` (stereo partly specified), inhibition was half-maximal at 0.01 µM (IC50).

In turn, `Nc1ncnc2c1nnn2C1C[C@H](CO)[C@@H](CO)[C@@H]1CO` (stereo partly specified) showed an IC50 above 200 µM.

`Nc1nc(N)c2nnn([C@H]3CCCC[C@H]3CO)c2n1` yielded an IC50 above 200 µM.

The compound `O=Cc1cn([C@H]2C[C@H](O)[C@@H](CO)O2)c(=O)[nH]c1=O` showed an IC50 of 1.07 µM.

In turn, `CCCC#Cc1cn([C@H]2C[C@H](O)[C@@H](CO)O2)c(=O)[nH]c1=O` gave an IC50 above 200 µM.

Turning to `COc1ccccc1C(=O)/C=C/c1cc(=O)[nH]c(=O)n1COCCO`, half-maximal inhibition (IC50) was put at 15.2 µM.

On to `OC[C@H]1C[C@@H](Cn2cnc3c(-c4ccc(Cl)cc4)ncnc32)c2ccccc21`, for which the IC50 was 8.44 µM.

Compound `O=c1ccn(CC2CCC(CO)C2)c(=O)[nH]1` (stereo unspecified) yielded a half-inhibitory concentration (IC50) above 200 µM.

With `COc1ccc(C(=O)/C=C/c2cc(=O)[nH]c(=O)n2COCCO)cc1`, 33.5 µM corresponded to half-maximal inhibition (IC50).

The compound `CC1(C)C(CO)CC1Cn1cnc2c(Cl)nc(N)nc21` (stereo unspecified) yielded an IC50 above 200 µM.

`O=C1O/C(=C\Cn2cc(Cl)c(=O)[nH]c2=O)C(OCc2ccccc2)=C1OCc1ccccc1` gave an IC50 of 12.2 µM.

With `Nc1ncnc2c1ncn2C1OC(C(O)O)[C@H](O)[C@H]1O` (single isomer, unassigned), the IC50 was above 200 µM.

`OC[C@@H]1C[C@H](Cn2cnc3c(NC4CC4)ncnc32)c2c(-c3ccccc3)nnc(-c3ccccc3)c21` came in with an IC50 above 200 µM.

`COC1=C(OCc2ccc([N+](=O)[O-])cc2)C(=O)O/C1=C\Cn1cnc2c(Cl)ncnc21` registered an IC50 of 13.6 µM.

The compound `Nc1ncnc2c1ncn2CC1CCC(CO)C1` (stereo unspecified) yielded an IC50 above 200 µM.

Consider `O=c1[nH]c(=O)n(COCCO)cc1Cl`, for which the IC50 was above 200 µM.

The compound `CC1(C)[C@@H](CCCO)C[C@H]1n1nnc2c(=O)[nH]c(N)nc21` yielded an IC50 above 200 µM.

Compound `C=Cc1cn([C@H]2C[C@H](O)[C@@H](CO)O2)c(=O)[nH]c1=O` registered an IC50 of 14.2 µM.

As for `O=C1OC(C(O)Cn2ccc(=O)[nH]c2=O)C(OCc2ccccc2)=C1OCc1ccccc1` (stereo unspecified), the IC50 came to 157 µM.

In the case of `C#COc1cn([C@H]2C[C@H](O)[C@@H](CO)O2)c(=O)[nH]c1=O`, the half-maximal inhibitory concentration (IC50) was above 200 µM.

`COc1cc(-c2cn([C@H]3C[C@H](O)[C@@H](CO)O3)c(=O)[nH]c2=O)c(OC)c(C)c1C` yielded an IC50 above 200 µM.

The compound `C[C@H](O)C1CC(Cn2nnc3c(=O)[nH]cnc32)C1(C)C` (stereo partly specified) came in with an IC50 above 200 µM.

As to `O=c1[nH]c(=O)n([C@@H]2C[C@H](CO)C[C@@H]2CO)cc1I`, the IC50 was above 200 µM.

In turn, `CO[C@@H]1OC(n2cc(F)c(=O)[nH]c2=O)[C@H](OC(C)=O)[C@@H](OC(C)=O)[C@H]1F` (stereo partly specified) registered an IC50 of 34 µM.

`CC1(C)[C@@H](CO)CC[C@@]1(C)Cn1cc(Br)c(=O)[nH]c1=O` gave an IC50 above 200 µM.

With `CN(C)c1ncnc2c1ncn2COCCO`, the IC50 is above 200 µM.

Compound `O=c1[nH]c(=O)n([C@H]2C[C@H](O)[C@@H](CO)O2)cc1C1SCCS1` registered an IC50 above 200 µM.

Take `O=c1[nH]c(=O)n([C@H]2C[C@H](O)[C@@H](CO)O2)cc1C#CCCCO`: the half-maximal inhibitory concentration (IC50) is above 200 µM.

In turn, `C=C(Cl)c1cn([C@H]2C[C@H](O)[C@@H](CO)O2)c(=O)[nH]c1=O` came in with an IC50 of 1.66 µM.

In turn, `COc1ncnc2c1ncn2C[C@@H]1C[C@H](CO)c2ccccc21` yielded an IC50 above 200 µM.

Regarding `O=C1O/C(=C\Cn2ccc(=O)[nH]c2=O)C(O)=C1O`, the IC50 was above 200 µM.

In turn, `CC1(C)[C@@H](CCCO)C[C@H]1n1nnc2c(Cl)nc(N)nc21` yielded an IC50 above 200 µM.

Regarding `O=C1O/C(=C\Cn2cnc3c(Cl)ncnc32)C(OCc2ccccc2)=C1OCc1ccccc1`, the half-maximal inhibitory concentration (IC50) was 11.6 µM.

As to `OC[C@H]1C[C@@H](Cn2cnc3c(-c4ccccc4)ncnc32)c2ccccc21`, the IC50 amounted to 28.1 µM.

Consider `COC1=C(OC)C(=CCn2cnc3c(N)ncnc32)OC1=O`, for which the IC50 is above 200 µM.

On to `OC[C@H]1CCC[C@@H]1n1cnc2c(Cl)ncnc21`, for which the concentration for half-maximal inhibition (IC50) is above 200 µM.

In turn, `OC[C@@H]1C[C@H](Cn2cnc3c(NC4CCC4)ncnc32)c2c(-c3ccccc3)nnc(-c3ccccc3)c21` registered an IC50 of 90.8 µM.

`CC(C)Nc1ncnc2c1ncn2C1C[C@@H](CO)[C@@H](CO)C1` (stereo partly specified): the IC50 is above 200 µM.

Compound `C[C@H](O)C1CC(CCn2cnc3c(N)ncnc32)C1(C)C` (stereo partly specified) showed an IC50 above 200 µM.

Compound `CC1(C)C(CO)CC1Cn1nnc2c(=O)[nH]c(N)nc21` (stereo unspecified) showed an IC50 above 200 µM.

`COc1c(C)c(C)c(OC)c(-c2cn([C@H]3C[C@H](O)[C@@H](CO)O3)c(=O)[nH]c2=O)c1C`: the IC50 was above 200 µM.

`COc1ccc(C(=O)/C=C/c2cc(O)nc(O)n2)cc1` registered an IC50 above 200 µM.

For `CC(=O)OC(C)Cn1cnc2c(=S)[nH]c(N)nc21` (stereo unspecified), 128 µM corresponded to half-maximal inhibition (IC50).

`O=C1OC(=CCn2cnc3c(-n4cccc4)ncnc32)C(OCc2ccccc2)=C1OCc1ccccc1` gave an IC50 of 110 µM.

In turn, `O[C@H]1C[C@@H](Cn2cnc3c(Cl)ncnc32)c2ccccc21` registered an IC50 above 200 µM.

`O=C1O/C(=C\Cn2ccc(=O)[nH]c2=O)C(OCc2ccccc2)=C1OCc1ccccc1`: the IC50 was 12.9 µM.

`CC(C)(C)C#Cc1cn([C@H]2C[C@H](O)[C@@H](CO)O2)c(=O)[nH]c1=O` registered an IC50 above 200 µM.

Turning to `CCCCCC#Cc1cn([C@H]2C[C@H](O)[C@@H](CO)O2)c(=O)[nH]c1=O`, the IC50 was above 200 µM.

The compound `CC1(C)[C@@H](Cn2cnc3c(O)nc(N)nc32)CC[C@@]1(C)CO` came in with a concentration for half-maximal inhibition (IC50) above 200 µM.

Compound `CCCCCC(=O)O[C@@H]1[C@H](OC(=O)CCCCC)CO[C@@H](OC)[C@@]1(F)n1ccc(=O)[nH]c1=O` had an IC50 of 40 µM.

The compound `CC1NC(=O)C(F)=CN1[C@@H]1O[C@H](COP2OCCCO2)[C@@H](O)C1=O` (stereo partly specified) showed an IC50 of 0.75 µM.

For the compound `CCCCCCc1cn([C@H]2C[C@H](O)[C@@H](CO)O2)c(=O)[nH]c1=O`, the IC50 is above 200 µM.

As for `O=c1ccn([C@@H]2CCC[C@H]2CO)c(=O)[nH]1`, the IC50 was above 200 µM.

Turning to `CC(=O)OCCOCn1cnc2c(S)nc(F)nc21`, half-maximal inhibition (IC50) required 40 µM.

As to `CC(=O)OC(C)Cn1cnc2c(Cl)nc(F)nc21` (stereo unspecified), the IC50 came out at 37 µM.

As to `Nc1nc(N)c2ncn(CCOCP(=O)(O)O)c2n1` [PMEDAP], the IC50 was 1.73 µM.

Take `O=c1[nH]c(=O)n(COCCO)cc1Br`: the IC50 was above 200 µM.

Turning to `Nc1ncnc2c1ncn2[C@@H]1O[C@H](/C=C\I)[C@H](O)[C@@H]1O`, the IC50 amounted to 43 µM.

`Cc1ccc(C(=O)/C=C/c2cc(=O)[nH]c(=O)n2COCCO)cc1` had an IC50 of 27.9 µM.

Regarding `CCCCC#Cc1cn([C@H]2C[C@H](O)[C@@H](CO)O2)c(=O)[nH]c1=O`, the IC50 is above 200 µM.

Regarding `O=c1[nH]c(=O)n([C@H]2C[C@H](O)[C@@H](CO)O2)cc1C#CCO`, the IC50 was above 200 µM.

`COC1=C(OC)C(O)(CCn2cnc3c(Cl)ncnc32)OC1=O` (stereo unspecified): the IC50 is above 200 µM.

For `O=c1[nH]cnc2c1ncn2C1CC(CO)C(CO)C1` (stereo unspecified), the IC50 was above 200 µM.

For `CCOc1ncnc2c1ncn2C[C@@H]1C[C@H](CO)c2ccccc21`, the IC50 was above 200 µM.

Regarding `CC1(C)C(CO)CC1Cn1nnc2c(Cl)nc(N)nc21` (stereo unspecified), the concentration for half-maximal inhibition (IC50) is above 200 µM.

In the case of `Oc1ncnc2c1ncn2C[C@@H]1C[C@H](O)c2ccccc21`, the IC50 was above 200 µM.

`O=c1[nH]c(=O)n([C@H]2C[C@H](O)[C@@H](CO)O2)cc1C(F)(F)F` [TRIFLURIDINE] displayed an IC50 of 0.02 µM.

Compound `Nc1ncnc2c1ncn2CCOCP(=O)(O)O` [ADEFOVIR] displayed an IC50 of 7.45 µM.

Take `OCCOCn1cnc2c(O)ncnc21`: the concentration for half-maximal inhibition (IC50) was above 200 µM.

Take `Nc1ccn([C@@H]2O[C@H](CO)[C@@H](O)[C@@H]2O)c(=O)n1` [CYTARABINE]: the half-inhibitory concentration (IC50) worked out at 0.7 µM.

`C#Cc1cn([C@H]2C[C@H](O)[C@@H](CO)O2)c(=O)[nH]c1=O` gave an IC50 of 0.36 µM.

In turn, `O=c1[nH]c(=O)n([C@H]2C[C@H](O)[C@@H](CO)O2)cc1/C=C/Cl` returned an IC50 above 200 µM.

The compound `O=c1ccn(C[C@@H]2C[C@H](CO)c3ccccc32)c(=O)[nH]1` returned an IC50 above 200 µM.

The compound `O=c1[nH]c(=O)n([C@H]2C[C@H](O)[C@@H](CO)O2)cc1I` [IDOXURIDINE] displayed an IC50 of 173 µM.

With `CCc1cn([C@H]2C[C@H](O)[C@@H](CO)O2)c(=O)[nH]c1=O` [EDOXUDINE], inhibition was half-maximal at 33.2 µM (IC50).

Regarding `Nc1nc2c(nc(N)n2COCCO)c(=O)[nH]1`, the IC50 is above 200 µM.

Take `O=c1[nH]c(=O)n([C@@H]2CCC[C@H]2CO)cc1I`: the IC50 was above 200 µM.

Compound `O=C1C(O)=C(O)O/C1=C\Cn1cc(F)c(=O)[nH]c1=O` registered a concentration for half-maximal inhibition (IC50) of 5.18 µM.

As for `O=c1[nH]cnc2c1nnn2CC1CCC(CO)C1` (stereo unspecified), the IC50 is above 200 µM.

The compound `C[C@H](O)C1CC(Cn2nnc3c(N)ncnc32)C1(C)C` (stereo partly specified) came in with an IC50 above 200 µM.

`COc1ncnc2c1ncn2C[C@@H]1C[C@H](O)c2ccccc21` registered an IC50 above 200 µM.

Compound `O=c1[nH]c(=O)n([C@H]2C[C@H](O)[C@@H](CO)O2)cc1/C=N/O` had an IC50 of 15.5 µM.

For `CC1(C)[C@@H](CO)CC[C@@]1(C)Cn1cc(I)c(=O)[nH]c1=O`, the IC50 is above 200 µM.

Consider `CC1(C)C(CO)CC1Cn1nnc2c(N)nc(N)nc21` (stereo unspecified), for which the IC50 is above 200 µM.

As to `O=C1O/C(=C\Cn2cc(C(F)(F)F)c(=O)[nH]c2=O)C(OCc2ccccc2)=C1OCc1ccccc1`, the IC50 turned out to be 2 µM.

Compound `CC(O)Cn1cnc2c(Cl)nc(I)nc21` (stereo unspecified) registered an IC50 above 200 µM.

These data come from ChEMBL document CHEMBL1142978, “Probing the anticancer activity of nucleoside analogues: a QSAR model approach using an internally consistent training set” (J Med Chem, 2007).
